Measured values from paper PMC12018770, “DEAD‐Box Helicase 6 Blockade in Brain‐Derived Aβ Oligomers From Alzheimer's Disease Patients Attenuates Neurotoxicity” (MedComm, 2025).
“Also recorded” adds a separate entry of the source.

What was measured:
[1] = system: GST‐DDX6; assay: GST pulldown with GST‐DDX6; assay type: binding; settings: 150 µg GST‐DDX6, 300 µg recombinant Aβ oligomers or negative control protein, overnight; n = 3
Method: We conducted a series of in vitro experiments to investigate the mechanism by which DDX6 blockade affects Aβ oligomer neurotoxicity.
In accordance with the protocol provided in the GST pulldown kit (#21516; Thermo Fisher Scientific), 150 µg of GST‐DDX6 protein were rotated with 50 µL of glutathione agarose resin at 4°C for 3 h. The resin was then incubated overnight with 300 µg of recombinant Aβ oligomers or a negative control protein, washed with pH 8.0 glutathione elution buffer, and validated by dot blotting.

[2] = system: human‐derived Aβ oligomers; assay: AP-MS with SAINTexpress scoring of binding to human‐derived Aβ oligomers; settings: score 0 to 1; criteria SAINT score > 0.5 and fold change ≥ 2; AD1–AD6, n = 6
Excerpt: Not all identified proteins bind to Aβ oligomers. Therefore, we used the SAINTexpress statistical method to screen for proteins most likely to interact with human‐derived Aβ oligomers. SAINTexpress assigns probability scores to factors interacting with target proteins, providing a value between 0 and 1, where higher scores indicate a greater likelihood of interaction with Aβ oligomers. Based on the analyzed results, we plotted the fold change on the x‐axis and SAINT scores on the y‐axis, with each point representing a protein. Proteins meeting the criteria of a SAINT score > 0.5 and fold change ≥ 2 were considered the most likely to bind Aβ oligomers (highlighted in red). Through rigorous analysis, we identified four proteins as binding partners (Figure 1C): DDX6 (SAINT score = 0.5783), DSP (SAINT score = 0.6608), JUP (SAINT score = 0.5846), and HRNR (SAINT score = 0.5246).
An aliquot of each peptide mixture was loaded onto a trap column (in‐house‐fabricated column packed with a reversed‐phase ReproSil‐Pur C18‐AQ resin, 150 µm × 15 cm, C18, 3 µm, 100 Å, Dr. Maisch GmbH, Germany) connected to an analytical column (EASY‐Spray column, […] × 75 µm ID, PepMap RSLC C18, 2 µm, 100 Å, Thermo Scientific, USA) using the autosampler of an EASY‐nLC 1200 HPLC system (Thermo Fisher Scientific). The peptides were eluted using a gradient (solvent A: 0.1% formic acid in water; solvent B: 80% acetonitrile/0.1% formic acid in water; Sigma, Germany) directly into a Q Exactive Hybrid Quadrupole‐Orbitrap mass spectrometer (Thermo Fisher Scientific). The gradient program was as follows: 4%–8% solvent B over 2 min, 8%–28% solvent B over 43 min, 28%–40% solvent B over 10 min, 40%–95% solvent B over 1 min, and 95% solvent B for 10 min. The following mass spectrometry parameters were used: spray voltage, 2.2 kV; capillary temperature, 270°C; MS resolution, 70,000 at 400 m/z; MS precursor m/z range, 300.0–1800.0 m/z; activation type, high‐energy collision dissociation; normalized collision energy, 28.0; activation time, […]; and data‐dependent MS/MS, top 20 most intense peptide ions selected based on the preview scan in the Orbitrap.
The raw MS files (Figure S5) were analyzed and searched against species‐specific protein databases using MaxQuant (v1.6.2.10). The following parameters were applied: maximum missed cleavages, 2; precursor ion mass tolerance, 20 ppm; and MS/MS tolerance, 20 ppm. Peptides and proteins were filtered to achieve a false discovery rate of < 1% using a target‐decoy database strategy, and only proteins with at least two unique peptides were reported. […] SAINT is a probabilistic method for scoring protein–protein interactions in AP‐MS experiments, enabling the identification of proteins most likely to interact with target proteins. […]

[3] = system: human‐derived Aβ oligomers; assay: Co-immunoprecipitation / Western blotting of protein-Aβ oligomer interaction in AD brain extracts; assay type: binding; settings: IgG isotype control
Excerpt: After rigorous data analysis with SAINTexpress, four proteins (DDX6, DSP, JUP, and HRNR) were identified as potential Aβ oligomer‐binding partners. To validate these findings, we selected DSP and DDX6 as positive controls for co‐IP analysis; tau proteins were used as negative controls. Input samples, IP, co‐IP extracts, and IgG controls were adjusted to ensure equal amounts of protein for comparison. […] The IP enrichment effect was substantial for Aβ oligomers, DDX6, DSP, and tau proteins. In the co‐IP extracts for DDX6 and DSP, Aβ oligomers were detected at approximately 55 and 30 kDa, respectively (indicated by “ [drawing 1] ”). […] Isotype control IgG was used to exclude nonspecific binding (Figure 2A).
A Co‐IP kit (Thermo Fisher Scientific; #26149, USA) was used for the assay. Antibodies (2 µg) were crosslinked to a reinforced AminoLink coupling resin (20 µL of beads) and immobilized on a Pierce spin column at room temperature. Protein extracts (1 mg) were added to the spin column and incubated overnight at 4°C with rotation. The spin column was then transferred to a new collection tube, and 60 µL of elution buffer (pH 2.8, containing tertiary amine) was added. The column was centrifuged, and the eluate was analyzed to detect the presence of the target protein.
Protein concentrations in the co‐IP extracts were measured using a bicinchoninic acid assay (#23225, Thermo Fisher Scientific, USA). For each sample, 20 µL of protein was loaded, with the following amounts of human‐derived Aβ oligomers (AD1–AD6) used: 1.8 µg, 2.0 µg, 1.9 µg, 1.6 µg, 2.0 µg, and 1.8 µg, respectively. Equivalent amounts of co‐IP extracts were loaded into the remaining lanes. A 5× loading buffer was added to the protein samples to achieve a final concentration of 1×, and the samples were incubated at 95°C for 5 min [44]. […]
B. The PVDF membrane was probed with the Aβ oligomer antibody (A11), indicating enrichment of Aβ oligomers (post-IP) with bands observed at 55 kDa and 30 kDa. Aβ oligomers were detected in the co-IP products of DDX6 (indicated by “✸”). […]

[4] = system: Aβ oligomers in AD brain; assay: IHC colocalization with Aβ oligomers in AD brain sections; design: species or system human; settings: AD7–AD10, n = 4; fluorescence scan over 120 µm
Excerpt: To further validate the binding interactions between Aβ oligomers and the four proteins, we performed immunohistochemistry (IHC) on brain sections from four AD patients (AD7–AD10). We analyzed the colocalization of Aβ oligomers (red) with DDX6, JUP, HRNR, and DSP (all green), as well as 4',6‐diamidino‐2‐phenylindole (DAPI)‐stained nuclei (blue). […] We also performed fluorescence intensity scanning from left to right across stained brain tissue slices (120 µm). […] The combined results from co‐IP and IHC confirm that these four proteins can bind to Aβ oligomers.
Sections were dewaxed, subjected to antigen retrieval, and blocked. They were then incubated with primary antibody (1:500) overnight at 4°C, followed by secondary antibody (1:200). Nuclei were stained with DAPI (Beyotime; C1002, Shanghai, China) for 10 min in the dark.

[5] = system: Aβ fibrillar plaques; assay: ThT‐binding assay, fluorescence microscopy of fibrillar plaques; assay type: biochemical; settings: DDX6 10 µM, Aβ42 20 µM, Aβ42 oligomers 5 µM; n = 3

## Aβ42 oligomers: oligomers prepared from Aβ42 peptide (Abcam #ab120301), PBS, 72 h at 4°C
[1]
  pulldown by GST‐DDX6: successfully pulled down

## DEAD‐box helicase 6 [DDX6]
[2]
  SAINT score: 0.5783
[3]
  binding to Aβ oligomers by co‐IP: DDX6 and DSP were also detected in Aβ oligomer co‐IP extracts; also recorded: DDX6 was detected in the co-IP products of Aβ oligomers
[4]
  colocalization with Aβ oligomers: strong colocalization
[5]
  fluorescence intensity by microscopy (in words): showed no effects on fluorescence intensity
